Key:
[1] = test system: Rat; test: Rat 26-week oral gavage toxicity study; format: in vivo; conditions: for Histopathological Liver Findings / ALT / AST / GLDH: rat 26-week; for ALT / AST / GLDH: mean (SD)
Excerpt: (§1) TAK-994 performed well in tiered safety screening assays, with wide margins between in vitro IC50 and the predicted efficacious exposures (Table 1). […] Based on the safety profiles observed in these animal studies, TAK-994 progressed into phase I clinical trials.
^aAll dose levels had 15 animals per sex. No statistical difference was observed between the TAK-994 and control groups.

[2] = test system: cynomolgus monkeys; test: Monkey 39-week oral gavage toxicity study; format: in vivo, cynomolgus monkey; conditions: for Histopathological Liver Findings / ALT / AST / GLDH: monkey 39-week; for ALT / AST / GLDH: mean (SD)
Excerpt: as §1
^bAll dose levels had 4 animals per sex. No statistical difference was observed between the TAK-994 and control groups.

[3] = test system: human liver microtissues + FFA; test: Hepatotoxicity in steatosis liver model (free fatty acids); format: cell-based; conditions: 14 days
Description: Mono and co-culture model cells were exposed to TAK-994 (0.1, 0.3, 1, 3.16, 10, 31.6, or 100 μM in 0.5% DMSO) for 14 days (TAK-994 administered on Days 0, 5, and 9). The cell culture medium was supplemented with free fatty acids of 100 μM of Oleic acid and 66 μM of Palmitic acid. Six replicates were tested for each condition. The vehicle control was 0.5% DMSO, and the positive control was chlorpromazine (0.1, 0.3, 1, 3.16, 10, 31.6, or 100 μM in DMSO). Cellular ATP content was measured in the cell lysate on Day 14 of treatment. LDH release was measured in the cell supernatant on Days 5, 9, and 14 and normalized to lysed controls. Cellular triglyceride content was measured in the microtissues on Day 14.
Intracellular ATP content in model lysates was measured with the CellTiter-Glo® 2.0 Cell Viability Assay (Catalogue No. G9243, Promega). The Bioluminescent LDH Release Toxicity Assay Kit (Catalogue No. J2380, Promega) was used to assess extracellular LDH release and normalized to lysed controls. ATP, LDH, GSH, and triglycerides were measured according to internal technical operating procedures.

## CC(C)(O)C(=O)N1CC[C@H](NS(C)(=O)=O)[C@@H]1Cc1cccc(-c2cc(F)cc(F)c2)c1F.CC(C)(O)C(=O)N1CC[C@H](NS(C)(=O)=O)[C@@H]1Cc1cccc(-c2cc(F)cc(F)c2)c1F.O.O.O [TAK-994]
[1]; female, 50 mg/kg
  Histopathological Liver Findings: No adverse findings
  ALT: 35 (12) IU/L
  AST: 64 (38) IU/L
  GLDH: 41 (78) IU/L
[1]; female, 150 mg/kg
  Histopathological Liver Findings: No adverse findings
  ALT: 37 (8) IU/L
  AST: 53 (13) IU/L
  GLDH: 12 (14) IU/L
[1]; female, 1000 mg/kg
  Histopathological Liver Findings: No adverse findings
  ALT: 44 (14) IU/L
  AST: 51 (6) IU/L
  GLDH: 6 (4) IU/L
[1]; male, 50 mg/kg
  Histopathological Liver Findings: No adverse findings
  ALT: 29 (6) IU/L
  AST: 53 (8) IU/L
  GLDH: 12 (8) IU/L
[1]; male, 150 mg/kg
  Histopathological Liver Findings: No adverse findings
  ALT: 38 (31) IU/L
  AST: 53 (11) IU/L
  GLDH: 12 (7) IU/L
[1]; male, 1000 mg/kg
  Histopathological Liver Findings: No adverse findings
  ALT: 31 (7) IU/L
  AST: 50 (11) IU/L
  GLDH: 7 (4) IU/L
[1]; rats, 6-mo, up to the high dose tested of 1,000 mg/kg
  adverse liver findings, chronic dose toxicity study: no adverse liver findings
[2]; cynomolgus monkeys, 9-mo, up to the high dose tested of 1,000 mg/kg
  adverse liver findings, chronic dose toxicity study: no adverse liver findings
[2]; female, 60 mg/kg
  Histopathological Liver Findings: No adverse findings
  ALT: 35 (9) IU/L
  AST: 31 (6) IU/L
  GLDH: 11 (2) IU/L
[2]; female, 200 mg/kg
  Histopathological Liver Findings: No adverse findings
  ALT: 28 (9) IU/L
  AST: 27 (12) IU/L
  GLDH: 11 (1) IU/L
[2]; female, 1000 mg/kg
  Histopathological Liver Findings: No adverse findings
  ALT: 34 (10) IU/L
  AST: 24 (5) IU/L
  GLDH: 12 (1) IU/L
[2]; male, 60 mg/kg
  Histopathological Liver Findings: No adverse findings
  ALT: 42 (20) IU/L
  AST: 30 (12) IU/L
  GLDH: 12 (3) IU/L
[2]; male, 200 mg/kg
  Histopathological Liver Findings: No adverse findings
  ALT: 32 (2) IU/L
  AST: 23 (7) IU/L
  GLDH: 13 (1) IU/L
[2]; male, 1000 mg/kg
  Histopathological Liver Findings: No adverse findings
  ALT: 33 (9) IU/L
  AST: 22 (4) IU/L
  GLDH: 13 (3) IU/L
[3]
  sensitization of liver microtissues by free fatty acids: no increased sensitivity

From paper PMC11939078, “TAK-994 mechanistic investigation into drug-induced liver injury” (Toxicological Sciences, 2025)
